In US20120076775A1, “Combination of HGF Inhibitor and EGF Inhibitor to Treat Cancer” (priority 2008, published 2012):

Columns and labels:
[1] = test system: GB-d1 gallbladder tumor xenografts; assay: GB-d1 gallbladder tumor s.c. xenograft, tumor growth; format: in vivo; conditions: NIH III xid/Beige/nude mice, mAbs 100 μg (approx. 5 mg/kg) twice per week from day 13
Protocol: Human tumor cells typically grown in complete DMEM medium are typically harvested in HBSS. Female immunodeficient, e.g., athymic nude mice (4-6 wks old) are injected s.c. with typically 5×10^6 cells in 0.2 ml of HBSS in the dorsal areas. When the tumor size reaches 50-100 mm^3, the mice are grouped randomly and appropriate amounts of the agents are administered. […] Tumor sizes are determined typically twice a week by measuring in two dimensions [length (a) and width (b)]. Tumor volume is calculated according to V=ab^2/2 and expressed as mean tumor volume±SEM. The number of mice in each treatment group is at least 3, but more often between 5 and 10, e.g., 7. One group of mice is treated with both agents; other groups may be treated with neither agent or with one agent but not the other agent. […] Statistical analysis may be performed using, e.g., Student's t test.
For example, such an experiment was performed with GB-d1 gallbladder tumor xenografts. Female NIH III xid/Beige/nude mice (4-6 wks old) were implanted with tumors by s.c. injection of 10^6 GB-d1 cells in the dorsal areas. When the tumor size reached ˜100 mm^3, the mice were grouped randomly into 4 groups of 5 mice each. […] The mAbs were administered twice per week at 100 μg (approx. 5 mg/kg body weight) from day 13. Tumor sizes were determined twice per week as described above.

[2] = molecular target: heparin sulfate proteoglycans (HSPG); conditions: literature; read-out: Kd, low affinity binding site for HSPG; cited from earlier work
cMet receptor = cMet receptor (Homo sapiens, UniProt P08581); conditions: literature; read-out: Kd, high affinity binding site for cMet receptor; cited from earlier work
Chain of cMet receptor (P08581 25-1390): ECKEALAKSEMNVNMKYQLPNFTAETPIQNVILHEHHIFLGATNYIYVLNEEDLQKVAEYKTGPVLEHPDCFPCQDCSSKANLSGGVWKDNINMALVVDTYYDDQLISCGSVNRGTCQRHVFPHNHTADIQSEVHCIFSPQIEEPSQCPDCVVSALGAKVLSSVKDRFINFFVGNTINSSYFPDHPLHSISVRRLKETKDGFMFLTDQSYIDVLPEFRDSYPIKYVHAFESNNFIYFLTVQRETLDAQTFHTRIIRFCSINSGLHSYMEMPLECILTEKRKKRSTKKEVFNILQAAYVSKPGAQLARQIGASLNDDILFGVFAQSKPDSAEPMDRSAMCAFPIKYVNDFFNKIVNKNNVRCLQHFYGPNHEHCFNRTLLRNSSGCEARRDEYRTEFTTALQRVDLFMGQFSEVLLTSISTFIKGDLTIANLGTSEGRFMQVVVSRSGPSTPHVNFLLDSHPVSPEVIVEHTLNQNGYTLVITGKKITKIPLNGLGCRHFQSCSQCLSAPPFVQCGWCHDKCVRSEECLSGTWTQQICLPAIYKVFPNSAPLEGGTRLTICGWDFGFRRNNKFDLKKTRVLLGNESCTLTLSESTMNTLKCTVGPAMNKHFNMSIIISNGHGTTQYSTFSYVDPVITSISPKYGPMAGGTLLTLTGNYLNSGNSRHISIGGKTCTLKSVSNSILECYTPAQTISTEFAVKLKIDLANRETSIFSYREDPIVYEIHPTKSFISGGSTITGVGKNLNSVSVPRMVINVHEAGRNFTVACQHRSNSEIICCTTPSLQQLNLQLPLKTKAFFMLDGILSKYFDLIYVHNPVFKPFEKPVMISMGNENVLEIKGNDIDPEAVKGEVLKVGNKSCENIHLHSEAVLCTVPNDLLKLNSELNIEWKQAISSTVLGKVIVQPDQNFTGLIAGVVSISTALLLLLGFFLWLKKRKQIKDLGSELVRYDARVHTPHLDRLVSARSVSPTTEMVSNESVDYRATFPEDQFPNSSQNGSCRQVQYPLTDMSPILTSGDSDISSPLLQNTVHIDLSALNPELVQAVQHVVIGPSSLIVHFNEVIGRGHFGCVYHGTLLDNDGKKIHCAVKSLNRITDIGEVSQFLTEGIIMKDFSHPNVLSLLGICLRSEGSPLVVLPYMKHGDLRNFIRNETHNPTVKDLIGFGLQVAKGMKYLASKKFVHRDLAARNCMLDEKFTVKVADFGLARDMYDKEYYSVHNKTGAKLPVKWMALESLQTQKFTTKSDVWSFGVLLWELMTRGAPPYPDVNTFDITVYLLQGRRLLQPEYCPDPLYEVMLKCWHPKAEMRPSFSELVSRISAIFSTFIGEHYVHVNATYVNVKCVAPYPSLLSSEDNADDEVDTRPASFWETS

U87EGFRvIII xenografts = assay: U87EGFRvIII s.c. xenograft, tumor growth; format: in vivo; conditions: s.c. U87EGFRvIII in immunodeficient mice; mAbs i.p. 5 mg/kg days 8, 12, 15; erlotinib 150 mg/kg 6 times per week
Protocol: Illustrative but not limiting examples of immunodeficient strains of mice that can be used are nude mice such as CD-1 nude, Nu/Nu, Balb/c nude, NIH-III (NIH-bg-nu-xid BR); scid mice such as Fox Chase SCID (C.B-17 SCID), Fox Chase outbred SCID and SCID Beige; mice deficient in RAG enzyme; as well as nude rats. Experiments are carried out as described previously (Kim et al., Nature 362:841, 1992, which is incorporated herein by reference). Human tumor cells typically grown in complete DMEM medium are typically harvested in HBSS. Female immunodeficient, e.g., athymic nude mice (4-6 wks old) are injected s.c. with typically 5×10^6 cells in 0.2 ml of HBSS in the dorsal areas. When the tumor size reaches 50-100 mm^3, the mice are grouped randomly and appropriate amounts of the agents are administered. […] Tumor sizes are determined typically twice a week by measuring in two dimensions [length (a) and width (b)]. Tumor volume is calculated according to V=ab^2/2 and expressed as mean tumor volume±SEM. […] The effect of the agents may measured by growth of the tumor with time, prolongation of the survival of the mice, or increase in percent of the mice surviving at a given time or indefinitely. […]

[3] = test system: U87EGFRvIII intracranial xenografts; assay: U87EGFRvIII intracranial xenograft, survival; format: in vivo, mice; conditions: treated day 5 to 21, 5 mg/kg mAb twice per week, 150 mg erlotinib 6 times per week
Protocol: In this experiment, mice were implanted intracranially with U87EGFRvIII cells as described (Kim et al, op. cit.) in order to more accurately simulate brain tumors. Four groups of mice were treated with control mAb 5G8 or anti-HGF mAb L27, either alone or in combination with erlotinib, from post-implantation day 5 to 21 (5 mg/kg mAb twice per week; 150 mg erlotinib 6 times per week).

Compound: HuL2G7: humanized L2G7 anti-HGF mAb; heavy and light chains SEQ ID NO:1 and 2
- inhibition of tumor growth (FIG. 1) [1]: partially inhibited tumor growth

Compound: HGF: 102 kDa heterodimeric polypeptide growth factor, ligand of cMet
- Kd [2]: 1 nM
- Kd (cMet receptor): 0.2 nM

Compound: C#Cc1cccc(Nc2ncnc3cc(OCCOC)c(OCCOC)cc23)c1 [erlotinib, N-(3-ethynylphenyl)-6,7-bis(2-methoxyethoxy)-4-quinazolinamine]
- inhibition of growth of xenografts (FIG. 2) (U87EGFRvIII xenografts): only modestly inhibited growth of the tumors
- prolongation of survival (FIG. 3) [3]: slightly but significantly prolonged survival
